This is an account of results in patent publication US5231031A, “Method for assessing risk of diabetes-associated pathologic conditions and efficacy of therapies for such conditions” (priority 1990, dated 1993).

Each structure is given as a SMILES string.

The conditions of series [1]: compared with F3P; cited from earlier work.
A short description of series [2]: pKa of the phosphorylated metabolites (Table 1). The format is physicochemical. The text has this:
While the toxic potential and precise structures of compounds a and b are not known, they have many characteristics in common with S3P and F3P, such as unique chemical shifts, large ^1 H-^31 P spin-spin coupling constants and unusually low pKa' values (see Table 1). In these properties, Compounds a and b differ substantially from other phosphomonoesters and thus appear to belong to the same class of compounds as S3P and F3P. […] There is a good correlation between these elevated concentrations and the presence of clinical symptoms of diabetic complications such as retinopathy, peripheral neuropathy and peripheral vascular disease. This correlation is especially striking when one compares the sum of the concentrations of compounds a and b with the concentration of S3P ([a]+[b]/[S3P]).
Compound (at pH 7.5) (Hz) pKa

For another series, the system named is erythrocytes. The series is described as follows: Effect of fructose-3-phosphate on red cell viability, 31P NMR. The format is cell-based, human. As for the experimental part:
FIGS. 3A-C are ^31 P NMR spectra showing the effect of fructose-3-phosphate on red cell viability.
Spectra were collected in 250-5000 scans using a 60° pulse and a 1.5 sec. repetition rate.
FIGS. 3A-C illustrates the results of an experiment which confirms that this indeed is the case for erythrocytes. […] This phenomenon indicates very strongly that F3P is indeed a toxic agent which, at sufficiently high concentration, leads to an irreversible decline in cell function and ultimately to cell death.

A short description of series [3]: Glycosylating activity and lability. From the text: A difficult problem encountered in the medical treatment of diabetes has been the inability to identify those diabetic patients who are at risk of experiencing some diabetes-associated pathologic condition, so as to effect timely intervention. […] Kato, M., Hayase, F., Shin, D. B., Oimomi, M. and Baba, S. (1989), The Maillard Reaction in Aging, Diabetes and Nutrition, J. W. Baynes and V. M. Monnier, eds, at 69-84 (Liss, New York, 1989).

Where [4] appears, read: erythrocytes loaded with F3P, then 12 hrs. in fructose-free medium.

For the compound `O=CC(=O)C[C@H](O)[C@H](O)CO` [Compound 3dG, 3-deoxyglucosone], the “glycosylating and cross-linking potency” value in series [1] was “even more potent Maillard glycosylating and cross-linking agent”.

As usually defined, the pKa is the pH at which an ionisable group is half protonated. With `O=C(CO)[C@@H](OP(=O)(O)O)[C@H](O)[C@H](O)CO` [Compound F3P, fructose-3-phosphate], in series [2], the pKa came out at 5.6. Besides, the toxicity to erythrocytes result with erythrocytes (at sufficiently high concentration) is “toxic agent”. For the same compound, in the series on erythrocytes (setting [4]), the “concentration of ATP” value is “dramatic decrease” and the “hemolysis of the cells” value was “extensive hemolysis”. Also, the glycosylating potency entry in series [3] is listed as “relatively potent glycosylating agent”. Further, in series [3] (especially in the presence of amines, breaks down to 3-deoxyglucosone), the lability result is given as “quite labile”.

Turning to `O=P(O)(O)O[C@@H]([C@H](O)[C@H](O)CO)[C@@H](O)CO` [Compound S3P, sorbitol-3-phosphate], in series [2], the pKa came to 5.4.
